Measurements from the supplement of paper PMC9013687.

Key:
Danio rerio embryo [1] = details: exposure time: 4 dpf
Description: (§1)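 Zebrafish embryos (UFZ-OBI strain) were exposed from 2 hpf for 48 h (2 dpf) or 96 h (4 dpf) at 28 °C; spontaneous tail coiling was scored at 25 hpf. Morphological features from automated image analysis (FishInspector), heart rate and locomotor response were fitted with drc models. Quantal endpoints were dichotomised at 2.5 SD from controls and fitted with a log-logistic model; heart rate, pigmentation and STC were normalised to the replicate control mean. Betamethasone was tested as betamethasone dipropionate, diflorasone as diflorasone diacetate.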

Danio rerio embryo [2] = test: EC10 STC increase; higher = less potent; details: exposure time: 25 h
Description: as §1

Danio rerio embryo [3] = test: EC10 Heart rate; higher = less potent
Description: as §1

Danio rerio embryo [4] = test: EC20 Lack of SB; higher = less potent; details: exposure time: 4 dpf
Description: as §1

Danio rerio embryo [5] = test: EC10 Eye size_Decrease; higher = less potent
Description: as §1

Danio rerio embryo [6] = test: EC10 Pigmentation increase; higher = less potent; details: exposure time: 4 dpf
Description: as §1

Danio rerio embryo [7] = test: EC50 Head size_Decrease
Description: as §1

Danio rerio embryo [8] = test: EC20 Heart rate; higher = less potent
Description: as §1

Danio rerio embryo [9] = test: EC20 Head size_Decrease; higher = less potent
Description: as §1

Danio rerio embryo [10] = test: EC50 Eye size_Decrease
Description: as §1

Danio rerio embryo [11] = test system: Danio rerio embryo
Description: as §1

Danio rerio embryo [12] = test: EC20 Pigmentation increase; higher = less potent; details: exposure time: 4 dpf
Description: as §1

Danio rerio embryo [13] = test: EC10 Lack of SB; higher = less potent; details: exposure time: 4 dpf
Description: as §1

Danio rerio embryo [14] = test: EC20 STC increase; higher = less potent; details: exposure time: 25 h
Description: as §1

Danio rerio embryo [15] = details: exposure time: 2 dpf
Description: as §1

Danio rerio embryo [16] = test: EC20 STC decrease; higher = less potent; details: exposure time: 25 h
Description: as §1

Danio rerio embryo [17] = test: EC10 STC decrease; higher = less potent; details: exposure time: 25 h
Description: as §1

Danio rerio embryo [18] = test: EC10 LMR ligth increase; higher = less potent; details: exposure time: 4 dpf
Description: as §1

Danio rerio embryo [19] = test: EC20 LMR ligth increase; higher = less potent; details: exposure time: 4 dpf
Description: as §1

Danio rerio embryo [20] = test: EC20 Pigmentation decrease; higher = less potent; details: exposure time: 2 dpf
Description: as §1

Danio rerio embryo [21] = test: EC10 Pigmentation decrease; higher = less potent; details: exposure time: 2 dpf
Description: as §1

Danio rerio embryo [22] = test: EC50 Head trunk angle_Decrease; details: exposure time: 2 dpf
Description: as §1

Danio rerio embryo [23] = test: EC10 Head trunk angle_Decrease; higher = less potent; details: exposure time: 2 dpf
Description: as §1

Danio rerio embryo [24] = test: EC10 Otolith; higher = less potent; details: exposure time: 2 dpf
Description: as §1

Danio rerio embryo [25] = test: EC20 Head trunk angle_Decrease; higher = less potent; details: exposure time: 2 dpf
Description: as §1

Danio rerio embryo [26] = test: EC20 Otolith; higher = less potent; details: exposure time: 2 dpf
Description: as §1

Danio rerio embryo [27] = test: EC10 Mandibular arch distance_Decrease; higher = less potent; details: exposure time: 4 dpf
Description: as §1

Danio rerio embryo [28] = test: EC20 Mandibular arch distance_Decrease; higher = less potent; details: exposure time: 4 dpf
Description: as §1

Danio rerio embryo [29] = test: EC50 Mandibular arch distance_Decrease; details: exposure time: 4 dpf
Description: as §1

Danio rerio embryo [30] = test: EC10 LMR ligth decrease; higher = less potent; details: exposure time: 4 dpf
Description: as §1

Danio rerio embryo [31] = test: EC20 LMR ligth decrease; higher = less potent; details: exposure time: 4 dpf
Description: as §1

SMILES | EC50 Lack of SB (Danio rerio embryo [1]) [µM] | EC10 STC increase (Danio rerio embryo [2]) [µM] | EC10 Heart rate (Danio rerio embryo [3]; exposure time: 2 dpf) [µM] | EC10 Heart rate (Danio rerio embryo [3]; exposure time: 4 dpf) [µM] | EC20 Lack of SB (Danio rerio embryo [4]) [µM] | EC10 Eye size Decrease (Danio rerio embryo [5]; exposure time: 2 dpf) [µM] | EC10 Eye size Decrease (Danio rerio embryo [5]; exposure time: 4 dpf) [µM] | EC10 Pigmentation increase (Danio rerio embryo [6]) [µM] | EC50 Head size Decrease (Danio rerio embryo [7]; exposure time: 2 dpf) [µM] | EC50 Head size Decrease (Danio rerio embryo [7]; exposure time: 4 dpf) [µM] | EC20 Heart rate (Danio rerio embryo [8]; exposure time: 2 dpf) [µM] | EC20 Heart rate (Danio rerio embryo [8]; exposure time: 4 dpf) [µM] | EC20 Head size Decrease (Danio rerio embryo [9]; exposure time: 2 dpf) [µM] | EC20 Head size Decrease (Danio rerio embryo [9]; exposure time: 4 dpf) [µM] | EC50 Eye size Decrease (Danio rerio embryo [10]; exposure time: 2 dpf) [µM] | EC50 Eye size Decrease (Danio rerio embryo [10]; exposure time: 4 dpf) [µM] | EC50 Heart rate (Danio rerio embryo [11]; exposure time: 2 dpf) [µM] | EC20 Pigmentation increase (Danio rerio embryo [12]) [µM] | EC10 Lack of SB (Danio rerio embryo [13]) [µM] | EC20 STC increase (Danio rerio embryo [14]) [µM] | EC50 Pigmentation decrease (Danio rerio embryo [15]) [µM] | EC20 STC decrease (Danio rerio embryo [16]) [µM] | EC10 STC decrease (Danio rerio embryo [17]) [µM] | EC10 LMR ligth increase (Danio rerio embryo [18]) [µM] | EC20 LMR ligth increase (Danio rerio embryo [19]) [µM] | EC20 Pigmentation decrease (Danio rerio embryo [20]) [µM] | EC10 Pigmentation decrease (Danio rerio embryo [21]) [µM] | EC50 Heart rate (Danio rerio embryo [11]; exposure time: 4 dpf) [µM] | EC50 Head trunk angle Decrease (Danio rerio embryo [22]) [µM] | EC10 Head trunk angle Decrease (Danio rerio embryo [23]) [µM] | EC10 Otolith (Danio rerio embryo [24]) [µM] | EC20 Head trunk angle Decrease (Danio rerio embryo [25]) [µM] | EC20 Otolith (Danio rerio embryo [26]) [µM] | EC10 Mandibular arch distance Decrease (Danio rerio embryo [27]) [µM] | EC20 Mandibular arch distance Decrease (Danio rerio embryo [28]) [µM] | EC50 Mandibular arch distance Decrease (Danio rerio embryo [29]) [µM] | EC10 LMR ligth decrease (Danio rerio embryo [30]) [µM] | EC20 LMR ligth decrease (Danio rerio embryo [31]) [µM]
O=C(O)CCc1nc(-c2ccccc2)c(-c2ccccc2)o1 [Oxaprozin] | 10.5 | 6.23 | 28 | 23 | 8.73 | 53.1 | 20.6 | 29.2 | 26.6 | 43.4 | 52.1 | 29.1 | 15.1 | 19.7 | 78.1 | 26.7 | 150 | 31 | 7.85 | 12.4 | – | – | – | – | – | – | – | – | – | – | – | – | – | – | – | – | – | –
CCCNCC(O)COc1ccccc1C(=O)CCc1ccccc1 (centres undefined) [Propafenone] | 7.65 | – | 1 | 2.29 | 6.61 | – | – | 23.1 | – | 31 | 4.31 | 4.78 | – | 18.3 | – | – | 52.1 | 26.5 | 6.08 | – | 62.3 | 13.3 | 6.36 | 16.4 | 17.3 | 49.3 | 43 | 16.8 | – | – | – | – | – | – | – | – | – | –
CCO/N=C(\CC)C1=C(O)CC(c2c(C)cc(C)cc2C)CC1=O (centres undefined) [Tralkoxydim] | 63.2 | – | – | 46.5 | 51.2 | 103 | 89.7 | – | 176 | – | – | 49.9 | 103 | – | 164 | 104 | – | – | 45.3 | – | – | 142 | 127 | – | – | – | – | 56.3 | 120 | 73.6 | 126 | 88 | 160 | – | – | – | – | –
CC(C)(C)C(O)C(Oc1ccc(Cl)cc1)n1cncn1 (centres undefined) [Triadimenol] | 20.9 | – | 13.7 | 64.4 | 20.1 | 138 | 81.1 | – | 177 | – | 23.2 | 96.8 | 147 | – | 200 | 108 | 56.8 | – | 19.6 | – | 152 | 135 | 118 | 8.63 | 17.3 | 98.2 | 76.2 | 194 | 152 | 94.5 | – | 113 | – | 116 | 133 | 169 | – | –
CSc1nc2cc(Cl)c(Oc3cccc(Cl)c3Cl)cc2[nH]1 [Triclabendazole] | 0.516 | – | 0.345 | 0.19 | 0.481 | 1.27 | 0.448 | 0.654 | – | – | 0.829 | 0.364 | – | – | 1.72 | 0.644 | 3.71 | 0.667 | 0.462 | – | 1.92 | 0.00782 | 0.00111 | – | – | 1.6 | 1.44 | 1.11 | 2.05 | 1.39 | – | 1.6 | – | – | – | – | 0.783 | 0.792
CCCCOC(=O)[C@@H](C)Oc1ccc(Oc2ccc(C(F)(F)F)cn2)cc1 [fluazifop-p-butyl] | 1.65 | – | – | – | 0.991 | 1.03 | 0.781 | – | 6.88 | – | – | – | 4.24 | – | 3.96 | 1.85 | – | – | 0.734 | – | 9.58 | – | – | – | – | 4.35 | 2.74 | – | 15.5 | 1.74 | 4.73 | 3.89 | 6.11 | – | – | – | – | –
